Reference: ChEMBL document CHEMBL5149978, “Structural insights of oxindole based kinase inhibitors as anticancer agents: Recent advances” (Eur J Med Chem, 2021)

Key:
MCF7 [1] = experiment: Anti-proliferative against human MCF-7 cells by SRB colorimetric assay; format: functional, cell-based
MCF7 [2] = experiment: Anti-proliferative against human MCF-7 cells by MTT assay; format: functional, cell-based
T47D = experiment: Anti-proliferative against human T-47D cells by MTT assay; format: functional, cell-based
HCT-116 [3] = experiment: Antiproliferative against human HCT-116 cells assessed as reduction in cell proliferation incubated for 72 hrs by MTT assay; format: functional, cell-based; conditions: HCT-116, 72 h
MDA-MB-231 [4] = experiment: Anti-proliferative activity against human MDA-MB-231 cells measured after 48 hrs by MTT assay; format: functional, cell-based; conditions: MDA-MB-231, 48 h
[5] = target: Serine/threonine-protein kinase pim-1 (Homo sapiens, UniProt P11309); experiment: Inhibition of PIM1 (unknown origin)
HeLa [6] = experiment: Anti-proliferative against human HeLa cells incubated for 48 hrs by MTT assay; format: functional, cell-based
A549 [7] = experiment: Anti-proliferative against human A549 cells incubated for 48 hrs by MTT assay; format: functional, cell-based; conditions: A549, 48 h
SW-620 = experiment: Anti-proliferative against human SW620 cells incubated for 48 hrs by MTT assay; format: functional, cell-based; conditions: SW-620, 48 h
MDA-MB-231 [8] = experiment: Anti-proliferative against human MDA-MB-231 cells by SRB colorimetric assay; format: functional, cell-based
[9] = Inhibition of tyrosine kinase receptor (unknown origin) by ELISA; design: species or system Homo sapiens
HeLa [10] = experiment: Cytotoxicity against human HeLa cells measured after 48 hrs by MTS assay; format: functional, cell-based
[11] = target: Cyclin-dependent kinase 2 (Homo sapiens, UniProt P24941); experiment: Inhibition of CDK2 (unknown origin)
HCT-116 [12] = experiment: Anti-proliferative against human HCT-116 cells by SRB colorimetric assay; format: functional, cell-based
A549 [13] = experiment: Anti-proliferative against human A549 cells by SRB colorimetric assay; format: functional, cell-based
[14] = target: Apoptosis regulator Bcl-2 (Homo sapiens, UniProt P10415); experiment: Inhibition of BCL2 (unknown origin)
[15] = target: Platelet-derived growth factor receptor beta (Homo sapiens, UniProt P09619); experiment: Inhibition of PDGFR beta (unknown origin)
Sequence of Platelet-derived growth factor receptor beta (P09619 whole entry): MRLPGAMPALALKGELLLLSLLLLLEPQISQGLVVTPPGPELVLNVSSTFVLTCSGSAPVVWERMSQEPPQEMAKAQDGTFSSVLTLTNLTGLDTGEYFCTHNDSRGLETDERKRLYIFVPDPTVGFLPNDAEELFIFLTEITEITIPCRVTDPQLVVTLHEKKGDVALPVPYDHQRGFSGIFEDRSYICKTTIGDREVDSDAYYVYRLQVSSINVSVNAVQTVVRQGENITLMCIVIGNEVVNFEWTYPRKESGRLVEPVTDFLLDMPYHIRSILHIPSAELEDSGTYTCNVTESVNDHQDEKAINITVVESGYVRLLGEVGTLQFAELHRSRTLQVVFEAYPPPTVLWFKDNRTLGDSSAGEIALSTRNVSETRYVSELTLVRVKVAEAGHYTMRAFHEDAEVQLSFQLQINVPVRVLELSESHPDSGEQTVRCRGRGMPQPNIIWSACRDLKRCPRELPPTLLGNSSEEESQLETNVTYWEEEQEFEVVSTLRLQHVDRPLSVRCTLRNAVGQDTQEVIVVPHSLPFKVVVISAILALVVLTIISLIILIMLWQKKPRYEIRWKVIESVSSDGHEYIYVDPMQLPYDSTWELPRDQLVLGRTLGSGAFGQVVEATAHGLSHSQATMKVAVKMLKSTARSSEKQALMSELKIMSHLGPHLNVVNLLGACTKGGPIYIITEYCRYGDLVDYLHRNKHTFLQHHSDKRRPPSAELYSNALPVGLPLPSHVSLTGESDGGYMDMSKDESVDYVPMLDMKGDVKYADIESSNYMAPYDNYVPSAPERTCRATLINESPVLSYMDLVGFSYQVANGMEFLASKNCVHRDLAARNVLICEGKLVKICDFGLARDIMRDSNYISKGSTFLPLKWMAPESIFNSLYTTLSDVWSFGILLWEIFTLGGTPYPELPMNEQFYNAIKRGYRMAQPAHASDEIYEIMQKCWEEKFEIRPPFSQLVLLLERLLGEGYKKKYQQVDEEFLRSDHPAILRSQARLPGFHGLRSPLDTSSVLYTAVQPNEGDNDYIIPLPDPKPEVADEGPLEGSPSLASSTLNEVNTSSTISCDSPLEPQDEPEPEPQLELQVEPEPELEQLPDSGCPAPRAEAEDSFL

Sequence of Serine/threonine-protein kinase pim-1 (P11309 whole entry): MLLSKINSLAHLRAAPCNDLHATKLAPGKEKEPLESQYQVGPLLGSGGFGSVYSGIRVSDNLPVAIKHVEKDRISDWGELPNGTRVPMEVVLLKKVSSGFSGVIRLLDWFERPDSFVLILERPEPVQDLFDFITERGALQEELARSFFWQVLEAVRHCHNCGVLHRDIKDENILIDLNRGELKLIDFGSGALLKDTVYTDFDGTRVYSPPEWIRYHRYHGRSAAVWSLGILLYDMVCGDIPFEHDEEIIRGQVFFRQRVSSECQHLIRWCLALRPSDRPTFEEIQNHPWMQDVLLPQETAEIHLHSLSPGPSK
Sequence of Apoptosis regulator Bcl-2 (P10415 whole entry): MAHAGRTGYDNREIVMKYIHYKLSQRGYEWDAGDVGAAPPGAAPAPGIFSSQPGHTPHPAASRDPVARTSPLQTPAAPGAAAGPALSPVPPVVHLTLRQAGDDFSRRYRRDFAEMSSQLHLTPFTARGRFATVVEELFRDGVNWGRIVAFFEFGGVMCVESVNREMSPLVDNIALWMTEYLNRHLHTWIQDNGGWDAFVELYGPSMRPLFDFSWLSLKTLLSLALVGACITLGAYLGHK

For Cc1ccc2c(c1)/C(=N/NC(=O)c1cc3ccccc3[nH]1)C(=O)N2, the IC50 (MCF7 [1]) was 390 nM.
For COc1ccc2c(c1)/C(=N/NC(=O)c1cc3cc(Br)ccc3o1)C(=O)N2, the IC50 (MCF7 [2]) was 2270 nM and the IC50 (T47D) was 7800 nM.
In the case of CCN(CC)CCN1Cc2[nH]c(/C=C3\C(=O)Nc4ccc(Br)cc43)c(C)c2C1=O, the IC50 (HCT-116 [3]) is reported as 1050 nM.
For N#CC1=C(c2ccccc2)Nc2c(c(-c3cccs3)nn2-c2ccccc2)C12C(=O)Nc1ccc(Cl)cc12 (stereo unspecified), the IC50 (MDA-MB-231 [4]) was 6400 nM.
CCN(CC)CCN1Cc2[nH]c(/C=C3\C(=O)Nc4ccc(I)cc43)c(C)c2C1=O gave an IC50 (HCT-116 [3]) of 420 nM.
Compound O=C(/C=C1\C(=O)Nc2ccccc21)/C=C/c1ccc(F)cc1 has an IC50 [5] of 5000 nM, an IC50 (HeLa [6]) of 1530 nM and an IC50 (A549 [7]) of 2020 nM. The IC50 (SW-620) was 130 nM.
O=C(N/N=C1\C(=O)N(Cc2ccc(F)cc2)c2ccccc21)c1cc2ccccc2[nH]1 gave an IC50 (MDA-MB-231 [8]) of 1030 nM.
With O=C1Nc2ccc(Br)cc2/C1=N/NC(=O)c1cc2cc(Br)ccc2o1 the IC50 (MCF7 [2]) was 3410 nM and the IC50 (T47D) was 3820 nM.
Work on Cc1ccc2c(c1)/C(=N/NC(=O)c1cc3cc(Br)ccc3o1)C(=O)N2 yielded an IC50 (MCF7 [2]) of 3450 nM and an IC50 (T47D) of 4530 nM.
Compound COc1cccc(C[S+]([O-])/C=C2\C(=O)Nc3ccccc32)c1 (stereo unspecified) has an IC50 [9] of 2230 nM and an IC50 (HeLa [10]) of 22700 nM.
Compound CCCn1cc(/C=N/N=C2\C(=O)Nc3ccc(C)cc32)c2ccccc21 has an IC50 (MDA-MB-231 [8]) of 4700 nM, an IC50 [11] of 850 nM and an IC50 (HCT-116 [12]) of 2600 nM. The IC50 (A549 [13]) was 7300 nM and the IC50 [14] was 460 nM.
COc1ccc2c(c1)/C(=N\Nc1nnc3n1N=C(c1ccccc1)CS3)C(=O)N2 showed an IC50 [15] of 371 nM.
O=C1Nc2ccccc2/C1=C/[S+]([O-])Cc1ccc(Br)cc1 (stereo unspecified) showed an IC50 [9] of 1340 nM and an IC50 (HeLa [10]) of 24000 nM.
Compound N#CC1=C(c2ccccc2)Nc2c(c(-c3cccs3)nn2-c2ccccc2)C12C(=O)Nc1ccc(Br)cc12 (stereo unspecified) has an IC50 (MDA-MB-231 [4]) of 6700 nM.
